This note sets out measurements from patent US20240092774A1, “HETEROAROMATIC COMPOUNDS AND USES THEREOF” (HUTCHISON MEDIPHARMA LIMITED, priority 2020, published 2024).

The target in assay [1] is Recombinant human CSF1R kinase (Homo sapiens (Human), UniProt P07333). Nature of the assay: Measurement of CSF1R kinase activity at molecular level (Z-LYTE). The format is biochemical. As to conditions: Z-LYTE Tyr 1 peptide. The procedure:
Invitrogen, PV3227; • Development reagent B: Invitrogen, PV3295; • Development buffer: Invitrogen. P3127; • Stopping solution: Invitrogen, P3094; • Recombinant human CSF1R kinase: Invitrogen, P[…]; • 384 well plate, black: Corning. 3575; • Envision: Perkin Elmer. 2. […] The test compound was diluted in gradient to 4-fold the reaction concentration and the concentration of DMSO was kept at 8%. […] The mixture was mixed gently with a pipette. • 4) A phosphorylated peptide substrate solution (PP solution): 0.4 μL of Z-LYTETM Tyr1 phosphorylated peptide substrate was added to 99.6 μl of 1.33× kinase buffer. • 5) ATP solution: 10 mM of ATP was diluted to 760 μM with 1.33× kinase buffer to prepare ATP solution. • 6) Development solution: Development reagent B was diluted with Development buffer at a ratio of 1:200. 3. […] 2.5 μL of 4× test compound was added to each reaction well of the 384 plate, and the corresponding volume of 8% DMSO was added to the control well. The plate was placed on ice. […] After adding the reaction components, the 384-well plate was sealed and incubated at 25-30° C. for 1 h in dark. 2) Development Reaction 5 μL of Development solution was added to each well, sealed and incubated at 25-30° C. for another 1 h in dark. 3) Reaction Stopping and Plate Reading 5 μL of stopping solution was added to each well. The Coumarin value (excitation at 400 nm, emission at 445 nm) and Fluorescein value (excitation at 400 nm, emission at 520 nm) were measured, respectively. 4. […] Coumarin emission read-out (445 nm)/Fluorescein emission read-out (520 nm); • C3 445 nm: 100% phosphorylated Coumarin emission read-out; • C3 520 nm: 100% phosphorylated Fluorescein emission read-out; • C1 445 nm: 0% phosphorylated Coumarin emission read-out; • C1 520 nm: 0% phosphorylated Fluorescein emission read-out. […] 5. IC50 values: calculated by using software XL-FitTM (version 5.3) supplied by ID Business Solutions (Guildford, UK), which is an additional software to Microsoft Excel.

In assay [2] the target is CSF1R phosphorylation in THP-1 cells (Homo sapiens (Human), UniProt P07333). Description: Detection of CSF1R phosphorylation activity at cell level (p-CSF1R ELISA, M-CSF stimulated THP-1 cells). The format is cell-based. As to conditions: THP-1 cells, M-CSF stimulation, p-CSF1R ELISA; read-out: IC50. The procedure: THP-1 (ATCC), human acute monocytic leukemia cells.
Chain of CSF1R phosphorylation in THP-1 cells (P07333 20-972): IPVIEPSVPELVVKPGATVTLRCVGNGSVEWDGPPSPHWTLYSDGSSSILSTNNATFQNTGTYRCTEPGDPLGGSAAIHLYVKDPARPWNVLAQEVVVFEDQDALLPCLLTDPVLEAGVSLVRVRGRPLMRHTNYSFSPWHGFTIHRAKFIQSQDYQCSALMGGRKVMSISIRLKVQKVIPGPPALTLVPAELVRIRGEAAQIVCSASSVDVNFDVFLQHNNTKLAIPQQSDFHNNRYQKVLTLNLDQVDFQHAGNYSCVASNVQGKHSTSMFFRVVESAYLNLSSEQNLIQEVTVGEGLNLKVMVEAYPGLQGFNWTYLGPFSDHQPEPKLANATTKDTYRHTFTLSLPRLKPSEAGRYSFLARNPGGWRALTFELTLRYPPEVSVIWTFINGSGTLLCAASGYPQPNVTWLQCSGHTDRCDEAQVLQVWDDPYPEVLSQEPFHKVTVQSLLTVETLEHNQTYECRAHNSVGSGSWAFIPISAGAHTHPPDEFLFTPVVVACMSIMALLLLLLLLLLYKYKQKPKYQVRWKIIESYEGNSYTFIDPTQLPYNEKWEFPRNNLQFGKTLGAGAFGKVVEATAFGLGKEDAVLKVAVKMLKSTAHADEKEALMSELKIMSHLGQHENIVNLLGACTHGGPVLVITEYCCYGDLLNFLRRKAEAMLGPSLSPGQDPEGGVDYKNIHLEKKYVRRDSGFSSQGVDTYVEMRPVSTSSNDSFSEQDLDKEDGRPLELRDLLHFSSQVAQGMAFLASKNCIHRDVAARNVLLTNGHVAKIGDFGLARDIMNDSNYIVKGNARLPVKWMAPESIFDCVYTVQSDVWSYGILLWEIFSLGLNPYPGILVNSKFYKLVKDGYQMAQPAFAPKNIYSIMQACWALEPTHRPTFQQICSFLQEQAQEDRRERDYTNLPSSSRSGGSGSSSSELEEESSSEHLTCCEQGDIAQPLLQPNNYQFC
3. Treatment of cells and preparation of lysis buffer
5 μL. of the diluted compound was added to the 50 μL cell culture system, the culture was cultured in a 5% CO2, 37° C. cell incubator for 60 min, 300 ng/mL of M-CSF was added to the cells, and the mixture was stimulated in the 37° C. cell incubator for 1 min, added 50 μL of cell lysis buffer, and stored in a refrigerator at −80° C.
100 μL/well of the p-CSF1R capture antibody diluted to 0.8 μg/mL with PBS was added to the ELISA plate, and the plate was coated on a shaker at room temperature overnight. The culture was washed with PBST, and then added blocking solution and incubated at room temperature for 2 h. The culture was washed with PBST, added 90 μL of cell lysis buffer, and incubated on a shaker at 25° C. for 2 h. The plate was washed with PBST three times, added 100 μL of anti-p-tyrosine-HRP detection antibody diluted with 0.1% PBS-BSA diluent, and incubated on a shaker at 25° C. for 2 h. The plate was washed with PBST washing liquid, added 100 μL of chromogenic substrate and incubated at room temperature for 10-20 min. The reaction was stopped by adding 50 μL of 2N H2SO4. The optical density signal (450/570 nm) of each well was detected in Labsystems Multiskan K3 or Envision.
wherein • Drug-treated well read-out: indicating the optical density signal of a cell well with the test compound treatment. • Background read-out: indicating the optical density signal of a well without cells but with cell lysis buffer. • Cell well read-out: indicating the optical density signal of a cell well not treated with the compound.
6. Calculation of IC50: obtained by using XL-Fit 5.3 software, […]
For orientation: In an ELISA, binding on a coated surface is turned into a signal by an enzyme label.

Chain of Recombinant human CSF1R kinase (P07333 20-972): as above

One may read the IC50 as the concentration at which inhibition is half-maximal. Regarding `O=c1ccnc2ccc(Oc3cnc4c(c3)OC[C@@H](c3ccc(C5CC5)cn3)O4)cn12` [Compound 72], the values for the IC50 in assay [1] and in assay [2] were 0.014 µM and 0.032 µM, respectively.
As for `COc1cccc(CCOc2ncc(Oc3ccc4ncc(C)c(=O)n4c3)cc2OC)c1` [Compound 39], the IC50 in assay [1] was found to be 0.015 µM; in assay [2] it was 0.3 µM.
On the same counts, the results for `COc1cc(Oc2ccc3nccc(=O)n3c2)cnc1OCc1ccc(C2CC2)cc1` [Compound 25] are 0.008 µM and 0.004 µM.
On the same counts, the results for `O=c1ccnc2ccc(Oc3cnc4c(c3)OC[C@@H](c3ccc(C5CC5)nc3)O4)cn12` [Compound 59] are 0.005 µM and 0.05 µM.
Consider `COc1ccc([C@@H]2COc3cc(Oc4ccc5nccc(=O)n5c4)cnc3O2)cc1` [Compound 63], for which the figures for the IC50 in assay [1] and in assay [2] were 0.005 µM and 0.018 µM, respectively.
In the same order, the values of `COc1ccc([C@@H]2COc3cc(Oc4ccc5ncc(C)c(=O)n5c4)cnc3O2)cc1` [Compound 65] are 0.005 µM and 0.01 µM.
On the same counts, the results for `Cc1cnc2ccc(Oc3cnc4c(c3)OCC(c3ccc(C5CC5)cc3)O4)cn2c1=O` (stereo not shown) [Compound 45, 7-((3-(4-cyclopropylphenyl)-2,3-dihydro-[1,4]dioxino[2,3-b]pyrin-7-yl)oxy)-3-methyl-4H-pyrido[1,2-a]pyrimidin-4-one] are 0.036 µM and 0.061 µM.
In the same order, the values of `Cn1cc(-c2cc(Oc3cnc4c(c3)OCC(c3ccc(C5CC5)nc3)O4)ccn2)cn1` (racemic) [Compound 53, (R/S)-3-(6-cyclopropylpyridin-3-yl)-7-((2-(1-methyl-1H-pyrazol-4-yl)pyridin-4-yl)oxy)-2,3-dihydro-[1,4]dioxino[2,3-b]pyridine] are 0.003 µM and 0.019 µM.
`COc1cc(Oc2ccc3ncc(C)c(=O)n3c2)cnc1OCc1cccc(C(C)(C)C#N)c1` [Compound 10]: the IC50 in assay [1] was determined as 0.044 µM; in assay [2], 0.08 µM.
On the same counts, the results for `Cn1cc(-c2cc(Oc3cnc4c(c3)OCC(c3ccc(C5CC5)cc3)O4)ccn2)cn1` (racemic) [Compound 48, (R/S)-3-(4-cyclopropylphenyl)-7-((2-(1-methyl-1H-pyrazol-4-yl)pyridin-4-yl)oxy)-2,3-dihydro-[1,4]dioxino[2,3-b]pyridine] are 0.005 µM and 0.005 µM.
In the same order, the values of `COc1ccc([C@H]2COc3cc(Oc4ccnc(-c5cnn(C)c5)c4)cnc3O2)cn1` [Compound 70] are 0.008 µM and 0.015 µM.
